Measurements published in the NIST ThermoML archive (doi:10.1016/j.jct.2012.11.001).

Assay: wn = mass fraction of the nth substance listed
Conditions: 101 kPa, Liquid; for viscosity: Capillary tube (Ostwald / Ubbelohde) method; for speed of sound: Linear variable-path acoustic interferometer; for mass density: Pycnometric method

OC[C@H]1O[C@@](CO)(O[C@H]2O[C@H](CO)[C@@H](O)[C@H](O)[C@H]2O)[C@@H](O)[C@@H]1O [D-sucrose] + O
Conditions | mass density [kg/m3] | speed of sound [m/s] | viscosity [mPa·s]
293.15 K, w1 = 0.05 | 1018.91 | 1501.4 | 1.214
293.15 K, w1 = 0.1 | 1039.28 | 1522.5 | 1.376
293.15 K, w1 = 0.15 | 1060.31 | 1533.4 | 1.609
293.15 K, w1 = 0.2 | 1082.73 | 1545.2 | 1.932
298.15 K, w1 = 0.05 | 1017.19 | 1516.5 | 1.011
298.15 K, w1 = 0.1 | 1037.45 | 1531.8 | 1.183
298.15 K, w1 = 0.15 | 1058.49 | 1543.6 | 1.418
298.15 K, w1 = 0.2 | 1080.77 | 1555.3 | 1.756
303.15 K, w1 = 0.05 | 1015.46 | 1526.6 | 0.9129
303.15 K, w1 = 0.1 | 1035.61 | 1541.8 | 1.061
303.15 K, w1 = 0.15 | 1056.67 | 1553 | 1.252
303.15 K, w1 = 0.2 | 1078.8 | 1564.6 | 1.549
308.15 K, w1 = 0.05 | 1013.72 | 1537.8 | 0.8285
308.15 K, w1 = 0.1 | 1033.76 | 1551.6 | 0.9614
308.15 K, w1 = 0.15 | 1054.84 | 1562 | 1.129
308.15 K, w1 = 0.2 | 1076.84 | 1575.2 | 1.396
313.15 K, w1 = 0.05 | 1011.98 | 1547.7 | 0.7457
313.15 K, w1 = 0.1 | 1031.93 | 1561.8 | 0.8804
313.15 K, w1 = 0.15 | 1053.01 | 1570.8 | 1.025
313.15 K, w1 = 0.2 | 1074.88 | 1583.9 | 1.25
318.15 K, w1 = 0.05 | 1010.23 | 1557.2 | 0.6946
318.15 K, w1 = 0.1 | 1030.09 | 1570.9 | 0.8179
318.15 K, w1 = 0.15 | 1051.2 | 1579.2 | 0.9402
318.15 K, w1 = 0.2 | 1072.93 | 1592.8 | 1.15
